The source of these data is publication PMC10439952, “JT002, a small molecule inhibitor of the NLRP3 inflammasome for the treatment of autoinflammatory disorders” (Scientific Reports, 2023).

Structures are written as SMILES. pIC50: −log10 of the molar value.

Series [1] concerns the target NLRP3 inflammasome (Mus musculus, UniProt Q8R4B8). Description: Inhibition of IL-1β production in mouse PBMCs stimulated by LPS + nigericin. The series is classed as cell-based. On the set-up: host or cells: mouse PBMCs; mouse bone-marrow derived macrophages; mouse whole blood (C57BL/6 in the ex vivo study). As to conditions: Mouse PBMC, read-out: Geo Av IC50, IL-1β. The method, then: (§1) Inflammasome activation and whole blood assays were essentially carried out as described earlier. Details can be found in the supplementary information section accompanying this publication. A protocol for blood draws from healthy volunteers and use of the blood in preclinical assays was approved by Western Institutional Review Board, Inc (Puyallup, WA, USA). Informed consent was obtained from each donor prior to the first blood draw.
(§2) Cell viability was determined by addition of an equal volume of CellTiter-Glo® 2.0 reagent (Promega) to the remaining cells/supernatant in each well. Intracellular Caspase-1 activity was measured using the Caspase-Glo® assay (Promega) according to the manufacturer’s instructions. The biochemical capsase-1 assay was conducted at Reaction Biology Corporation (Malvern, USA). Human IL-1β, IL-1α, and TNFα and mouse IL-1β were measured in cell culture supernatants using homogeneous time resolved fluorescence assay kits (HTRF, Cisbio, Codolet, France). Human IL-18 was measured in cell culture supernatants using an ELISA kit (R&D Systems, Minneapolis, MN, USA). Plasma IL-1β concentrations were determined by Quantikine® ELISA (R&D Systems, Minneapolis, MN).
(§3) 4H). MS: m/z 433.1 (M+H+). […]

Series [2] concerns the target T1, NLRP3 inflammasome (Homo sapiens, UniProt Q96P20). In words: Inhibition of IL-1β, IL-18 and IL-1α production in human PBMCs stimulated by LPS + ATP. More on the design: host or cells: human PBMCs; fresh heparinised human whole blood from healthy volunteers. The series is classed as cell-based. The following applies: Human PBMC. The method, then:
as §1, §2
4H). MS: m/z 433.1 (M+H+).
Inflammasome activation.PBMCs (iXCells Biotechnologies, San Diego, USA) were thawed the day before the assay and seeded in complete medium (RPMI 1640 medium with GlutaMAX, supplemented with an additional 2.5 g/L D-glucose, 10% Fet al Bovine Serum, 100 mM Sodium Pyruvate, 1% Penicillin/Streptomycin, 10 mM HEPES and 0.05 mM β -mercaptoethanol) in polystyrene V-bottom 96-well plates at 5x10^4 cells per well and incubated overnight at 37°C with 5% CO 2. […]
flagellin, prepared in Opt iMEM and combined with Lipofectamine 2000. […] After priming Nlrp3 -/- mBMDMs with 100 ng/mL of LPS for 3- 5 h, cells were exposed to 100 ng/mL L18- MDP and incubated overnight.At the end of the incubation period of the assays above, plates were briefly centri fuged and hal f of the cell culture supern atant remo ved and either analysed i mmediately or stored at - 80°C for subs equent cytokine […]

Series [3] deals with T1, NLRP3 inflammasome. Description: Inhibition of IL-1β production in human PBMCs stimulated by LPS + nigericin. More on the design: host or cells: human PBMCs; fresh heparinised human whole blood from healthy volunteers. As to conditions: Human PBMC, read-out: Geo Av IC50, IL-1β. The series is classed as cell-based. As for the experimental part:
as §1, §2, §3

The nature of series [4]: Pharmacokinetics in male Sprague–Dawley rats after i.v. and p.o. administration. The series is classed as in vivo. As for the experimental part: The pharmacokinetics (PK) of JT002 were assessed in male Sprague–Dawley rats and male Beagle dogs after intravenous (i.v.) and oral (p.o.) administration (Table 2). […] In dogs, a maximum drug plasma concentration (Cmax) of 4.0 µg/mL (9 µM) was reached 1 h after a single 1 mg oral dose. Dose-adjusted exposures (dose-adjusted AUC) from oral administration were close to identical between rat and dog (11.8 versus 11.6) (Table 2).

Setting [5] is: Rat, single 5 mg oral dose, sodium salt form.
Setting [6] is: male, Sprague-Dawley, plasma, iv, Rat, 1 mg/kg.
Setting [7] is: male, Sprague-Dawley, plasma, po, Rat, 5 mg/kg.

T1 sequence (Q96P20 whole entry): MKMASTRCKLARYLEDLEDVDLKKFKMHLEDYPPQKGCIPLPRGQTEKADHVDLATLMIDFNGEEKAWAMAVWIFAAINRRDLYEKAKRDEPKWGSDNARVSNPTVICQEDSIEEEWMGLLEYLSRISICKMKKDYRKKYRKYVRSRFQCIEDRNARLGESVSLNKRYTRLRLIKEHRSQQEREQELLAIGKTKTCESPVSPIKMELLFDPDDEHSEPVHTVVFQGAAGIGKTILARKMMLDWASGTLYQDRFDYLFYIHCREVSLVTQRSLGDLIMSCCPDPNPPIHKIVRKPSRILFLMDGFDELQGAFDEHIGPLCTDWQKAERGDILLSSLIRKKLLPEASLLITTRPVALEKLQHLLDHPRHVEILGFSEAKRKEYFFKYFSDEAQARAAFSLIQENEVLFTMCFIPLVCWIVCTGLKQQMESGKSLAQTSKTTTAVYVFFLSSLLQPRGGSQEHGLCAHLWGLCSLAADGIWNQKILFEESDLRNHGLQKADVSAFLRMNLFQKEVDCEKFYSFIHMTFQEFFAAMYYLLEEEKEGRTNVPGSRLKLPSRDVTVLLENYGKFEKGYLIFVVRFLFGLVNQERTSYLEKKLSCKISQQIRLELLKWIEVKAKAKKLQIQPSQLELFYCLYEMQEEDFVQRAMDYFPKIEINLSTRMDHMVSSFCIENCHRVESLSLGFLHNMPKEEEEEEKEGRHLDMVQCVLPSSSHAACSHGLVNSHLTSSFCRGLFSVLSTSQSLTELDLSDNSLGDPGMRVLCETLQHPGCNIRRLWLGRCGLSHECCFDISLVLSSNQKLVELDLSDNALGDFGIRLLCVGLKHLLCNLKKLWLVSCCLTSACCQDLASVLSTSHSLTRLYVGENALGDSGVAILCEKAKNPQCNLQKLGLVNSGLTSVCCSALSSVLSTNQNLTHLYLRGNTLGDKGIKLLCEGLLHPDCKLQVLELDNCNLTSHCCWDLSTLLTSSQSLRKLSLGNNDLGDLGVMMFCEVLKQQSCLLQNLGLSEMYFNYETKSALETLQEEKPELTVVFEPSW
NLRP3 inflammasome (Mus musculus, UniProt Q8R4B8), sequence (Q8R4B8 whole entry): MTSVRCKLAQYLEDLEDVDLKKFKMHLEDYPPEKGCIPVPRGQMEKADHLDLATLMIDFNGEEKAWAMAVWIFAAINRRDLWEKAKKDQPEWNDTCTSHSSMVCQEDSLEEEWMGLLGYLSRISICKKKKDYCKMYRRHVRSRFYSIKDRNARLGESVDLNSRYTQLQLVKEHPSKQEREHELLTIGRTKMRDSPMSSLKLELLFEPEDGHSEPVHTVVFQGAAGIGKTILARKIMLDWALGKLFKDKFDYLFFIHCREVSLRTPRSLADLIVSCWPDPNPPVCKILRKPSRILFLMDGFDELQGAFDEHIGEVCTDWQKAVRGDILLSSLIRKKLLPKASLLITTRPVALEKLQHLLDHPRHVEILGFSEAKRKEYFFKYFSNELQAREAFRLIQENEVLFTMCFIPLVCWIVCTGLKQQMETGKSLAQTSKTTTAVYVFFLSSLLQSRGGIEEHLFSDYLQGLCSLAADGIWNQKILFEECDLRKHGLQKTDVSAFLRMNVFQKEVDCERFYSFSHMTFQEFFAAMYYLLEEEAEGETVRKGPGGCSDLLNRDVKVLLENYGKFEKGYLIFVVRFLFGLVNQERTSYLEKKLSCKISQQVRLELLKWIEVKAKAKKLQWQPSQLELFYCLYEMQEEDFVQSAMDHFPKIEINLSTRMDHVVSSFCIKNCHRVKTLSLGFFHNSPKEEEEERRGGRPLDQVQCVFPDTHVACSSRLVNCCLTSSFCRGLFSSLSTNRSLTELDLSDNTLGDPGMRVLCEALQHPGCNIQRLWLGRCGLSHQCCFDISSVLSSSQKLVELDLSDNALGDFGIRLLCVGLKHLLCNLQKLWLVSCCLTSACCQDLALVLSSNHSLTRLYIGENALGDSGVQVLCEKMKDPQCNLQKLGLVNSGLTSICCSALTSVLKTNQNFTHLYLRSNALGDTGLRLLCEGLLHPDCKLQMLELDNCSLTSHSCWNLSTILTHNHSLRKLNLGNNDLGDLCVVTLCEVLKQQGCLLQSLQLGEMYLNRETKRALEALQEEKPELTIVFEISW

With `CO[C@@H]1COc2c(S(=O)(=O)NC(=O)Nc3c4c(cc5c3CCC5)CCC4)cnn2C1` [JT002], the pIC50 is 7.60 at NLRP3 inflammasome [1]; 8.52 at NLRP3 inflammasome [2] (read-out: Geo Av IC50, IL-1α); 8.40 at NLRP3 inflammasome [2] (read-out: Geo Av IC50, IL-1β); 8.40 on NLRP3 inflammasome [2] (read-out: Geo Av IC50, IL-18); 8.22 on NLRP3 inflammasome [3]. In series [4] (Rat, p.o., 5 mg/kg, sodium salt form), the “%F (oral bioavailability)” value was 73.2%. Besides, the maximum plasma concentration in series [4] (setting [5]) was determined as 36 µM. Moreover, the “time of maximum plasma concentration” value in series [4] (setting [5]) was “thirty”. In addition, the AUC in series [4] (setting [6]) worked out at 16200 ng·h/mL; in series [4] (setting [7]), 59200 ng·h/mL. Further, the highest concentration (Cmax) in series [4] (setting [6]) amounted to 10600 ng/mL; in series [4] (setting [7]), 15600 ng/mL. Moreover, the half-life is 2.8 h in series [4] (setting [6]) and 3.4 h in series [4] (setting [7]). Further, the clearance in series [4] (male, Sprague-Dawley, plasma, iv, Rat, i.v., 1 mg/kg, read-out: Clpl (plasma clearance)) came to 1 mL/min/kg. Further, the Vd in series [4] (male, Sprague-Dawley, plasma, iv, Rat, i.v., 1 mg/kg, read-out: Vss) was 0.2 L/kg. Besides, the time to peak (Tmax) in series [4] (male, Sprague-Dawley, plasma, po, Rat, 5 mg/kg, median) came out at 0.5 h. The bioavailability in series [4] (male, Sprague-Dawley, rat, plasma, po, 5 mg/kg, p.o., 5 mg/kg, sodium salt form, read-out: %F (oral bioavailability)) turned out to be 73%.
